Assay results published in ChEMBL document CHEMBL4385594, “4(3H)-Quinazolinone derivatives: Promising antibacterial drug leads” (Eur J Med Chem, 2019).
Converted amounts (≈) assume the structure as drawn. One block for each molecule: values may come before it.

How the values were obtained:
MCF7 = experiment: Cytotoxicity against human MCF7 cells assessed as reduction in cell viability at 0.1 to 100 uM by MTT assay; format: functional, cell-based
Staphylococcus aureus [1] = experiment: Antibacterial activity against Staphylococcus aureus assessed as reduction in bacterial cell growth at 0.03 to 64 ug/ml incubated for 16 to 18 hrs by CLSI broth dilution method; format: functional
Suillus luteus = experiment: Antifungal activity against Suillus luteus assessed as reduction in fungal cell growth; format: functional
Escherichia coli [2] = experiment: Antibacterial activity against Escherichia coli assessed as diameter of zone inhibition at 100 ppm by disc diffusion method; format: functional; settings: read-out: DIZ
Staphylococcus aureus [3] = experiment: Antibacterial activity against Staphylococcus aureus assessed as diameter of zone inhibition at 100 ppm by disc diffusion method; format: functional; settings: read-out: DIZ
Staphylococcus aureus [4] = experiment: Antibacterial activity against Staphylococcus aureus ATCC 25923 assessed as reduction in bacterial cell growth at 0.03 to 64 ug/ml incubated for 16 to 18 hrs by CLSI broth dilution method; format: functional
Escherichia coli [5] = experiment: Antibacterial activity against Escherichia coli ATCC 25922 assessed as reduction in bacterial cell growth at 0.03 to 64 ug/ml incubated for 16 to 18 hrs by CLSI broth dilution method; format: functional
Pseudomonas aeruginosa = experiment: Antibacterial activity against Pseudomonas aeruginosa ATCC 27853 assessed as reduction in bacterial cell growth at 0.03 to 64 ug/ml incubated for 16 to 18 hrs by CLSI broth dilution method; format: functional
Enterococcus faecalis = experiment: Antibacterial activity against Enterococcus faecalis ATCC 29212 assessed as reduction in bacterial cell growth at 0.03 to 64 ug/ml incubated for 16 to 18 hrs by CLSI broth dilution method; format: functional
Staphylococcus aureus [6] = experiment: Antibacterial activity against Staphylococcus aureus; format: functional
Staphylococcus aureus [7] = experiment: Antibacterial activity against Staphylococcus aureus assessed as inhibition zone; format: functional

SMILES: Cn1cc[n+](C(Cn2cnc3ccc(Cl)cc3c2=O)c2cc3cc(Br)ccc3o2)c1 (centres undefined)
- IC50 (MCF7): 570 to 1000 nM

SMILES: N#Cc1ccc(/C=C/c2nc3ccccc3c(=O)n2-c2cccc(OCc3cn(-c4cccc(Cl)c4)nn3)c2)cc1
- MIC (Staphylococcus aureus [1]): 0.5 µg/mL (≈ 0.898 µM)

SMILES: CCCCNC(=O)Oc1ccc(-n2c(/C=C/c3ccc(Cl)cc3)nc3cc(Cl)ccc3c2=O)cc1
- MIC (Suillus luteus): 125 µg/mL (≈ 246 µM)

SMILES: Cc1nc2ccc(Br)cc2c(=O)n1/N=C/c1cc(Br)cc(Br)c1O
- zone of inhibition at 100 ppm (Escherichia coli [2]): 27 mm
- zone of inhibition at 100 ppm (Staphylococcus aureus [3]): 24 mm

SMILES: Cn1cc[n+](C(Cn2cnc3ccc(Cl)cc3c2=O)c2cc3ccccc3o2)c1 (centres undefined)
- IC50 (MCF7): 570 to 1000 nM

SMILES: N#Cc1ccc(/C=C/c2nc3ccccc3c(=O)n2-c2cccc(C#N)c2)cc1
- MIC (Staphylococcus aureus [1]): 0.5 µg/mL (≈ 1.34 µM)

SMILES: O=c1c2c(Br)cc(Br)cc2nc(-c2ccccc2)n1-c1nc2ccc(Br)cc2s1
- MIC (Staphylococcus aureus [4]): 1 to 8.5 µg/mL (≈ 1.69 to 14.4 µM)
- MIC (Escherichia coli [5]): 1 to 8.5 µg/mL (≈ 1.69 to 14.4 µM)
- MIC (Pseudomonas aeruginosa): 1 to 8.5 µg/mL (≈ 1.69 to 14.4 µM)
- MIC (Enterococcus faecalis): 1 to 8.5 µg/mL (≈ 1.69 to 14.4 µM)

SMILES: Cc1nc2ccc(Br)cc2c(=O)n1/N=C/c1cc(I)cc(I)c1O
- zone of inhibition at 100 ppm (Escherichia coli [2]): 16 mm
- zone of inhibition at 100 ppm (Staphylococcus aureus [3]): 14 mm

SMILES: Cc1nc2ccc(Br)cc2c(=O)n1/N=C/c1cc(Cl)cc(Cl)c1O
- zone of inhibition at 100 ppm (Escherichia coli [2]): 16 mm
- zone of inhibition at 100 ppm (Staphylococcus aureus [3]): 14 mm

SMILES: COc1ccc2ncn(CC(c3cc4ccccc4o3)[n+]3ccn(C)c3)c(=O)c2c1 (centres undefined)
- IC50 (MCF7): 570 to 1000 nM

SMILES: Cc1ccc2c(c1)c(=O)n(-c1ccccc1)c1nnc(-c3ccccc3)n21
- MIC (Staphylococcus aureus [6]): 32 µg/mL (≈ 90.8 µM)
- inhibition zone (IZ) (Staphylococcus aureus [7]): 17 mm

SMILES: O=c1c2c(Br)cc(Br)cc2nc(-c2ccccc2)n1-c1nc2cc(Cl)ccc2s1
- MIC (Staphylococcus aureus [4]): 1.2 to 9 µg/mL (≈ 2.19 to 16.4 µM)
- MIC (Escherichia coli [5]): 1.2 to 9 µg/mL (≈ 2.19 to 16.4 µM)
- MIC (Pseudomonas aeruginosa): 1.2 to 9 µg/mL (≈ 2.19 to 16.4 µM)
- MIC (Enterococcus faecalis): 1.2 to 9 µg/mL (≈ 2.19 to 16.4 µM)

SMILES: Cc1cccc2c(=O)n(-c3cccc(O)c3)c(/C=C/c3ccc(C#N)cc3)nc12
- MIC (Staphylococcus aureus [1]): 0.5 µg/mL (≈ 1.32 µM)

Next, values leading:

- MIC (Staphylococcus aureus [1]): 0.5 µg/mL (≈ 0.932 µM)
SMILES: N#Cc1ccc(/C=C/c2nc3ccccc3c(=O)n2-c2cccc(OCc3cn(Cc4ccccc4)nn3)c2)cc1

- MIC (Staphylococcus aureus [1]): 2 µg/mL (≈ 3.44 µM)
SMILES: N#Cc1ccc(/C=C/c2nc3ccccc3c(=O)n2-c2cccc(OCc3cn(Cc4ccc([N+](=O)[O-])cc4)nn3)c2)cc1

- MIC (Staphylococcus aureus [1]): 16 µg/mL (≈ 26 µM)
SMILES: N#Cc1ccc(/C=C/c2nc3ccccc3c(=O)n2-c2cccc(OCc3cn(Cc4ccc(Br)cc4)nn3)c2)cc1

- MIC (Staphylococcus aureus [1]): > 64 µg/mL
SMILES: N#Cc1ccc(/C=C/c2nc3ccccc3c(=O)n2-c2ccc(OCc3cn(Cc4ccc(Br)cc4)nn3)cc2)cc1

- MIC (Staphylococcus aureus [1]): 4 µg/mL (≈ 6.77 µM)
SMILES: N#Cc1ccc(/C=C/c2nc3ccccc3c(=O)n2-c2cccc(OCc3cn(-c4ccc(C(F)(F)F)cc4)nn3)c2)cc1

- MIC (Staphylococcus aureus [1]): 4 µg/mL (≈ 7.06 µM)
SMILES: N#Cc1ccc(/C=C/c2nc3ccccc3c(=O)n2-c2cccc(OCc3cn(-c4cccc(C(=O)O)c4)nn3)c2)cc1

- MIC (Staphylococcus aureus [1]): 0.5 µg/mL (≈ 0.882 µM)
SMILES: COc1ccc(Cn2cc(COc3cccc(-n4c(/C=C/c5ccc(C#N)cc5)nc5ccccc5c4=O)c3)nn2)cc1

- MIC (Staphylococcus aureus [1]): 0.5 µg/mL (≈ 0.812 µM)
SMILES: N#Cc1ccc(/C=C/c2nc3ccccc3c(=O)n2-c2cccc(OCc3cn(Cc4cccc(Br)c4)nn3)c2)cc1

- MIC (Staphylococcus aureus [1]): 0.5 µg/mL (≈ 0.932 µM)
SMILES: Cc1cccc(-n2cc(COc3cccc(-n4c(/C=C/c5ccc(C#N)cc5)nc5ccccc5c4=O)c3)nn2)c1

- MIC (Staphylococcus aureus [1]): 4 µg/mL (≈ 7.27 µM)
SMILES: O=c1c2ccccc2nc(/C=C/c2ccc(Cl)cc2)n1-c1cccc(OCc2cn(-c3cccc(F)c3)nn2)c1

- MIC (Staphylococcus aureus [1]): 4 µg/mL (≈ 7.24 µM)
SMILES: COc1ccc(-n2cc(COc3cccc(-n4c(/C=C/c5ccc(C#N)cc5)nc5ccccc5c4=O)c3)nn2)cc1

- MIC (Staphylococcus aureus [1]): 0.5 µg/mL (≈ 0.925 µM)
SMILES: N#Cc1ccc(/C=C/c2nc3ccccc3c(=O)n2-c2cccc(OCc3cn(-c4cccc(F)c4)nn3)c2)cc1

- MIC (Staphylococcus aureus [1]): 0.5 µg/mL (≈ 0.898 µM)
SMILES: N#Cc1ccc(/C=C/c2nc3ccccc3c(=O)n2-c2cccc(OCc3cn(-c4ccc(Cl)cc4)nn3)c2)cc1

- MIC (Staphylococcus aureus [1]): 1 µg/mL (≈ 2.4 µM)
SMILES: C#CCOc1cccc(-n2c(/C=C/c3ccc(C#N)cc3)nc3c(C)cccc3c2=O)c1

- MIC (Staphylococcus aureus [1]): 0.25 µg/mL (≈ 0.575 µM)
SMILES: CC(C)NC(=O)c1cccc(-n2c(/C=C/c3ccc(C#N)cc3)nc3ccccc3c2=O)c1

- MIC (Staphylococcus aureus [1]): 0.125 µg/mL (≈ 0.308 µM)
SMILES: C=CCOc1cccc(-n2c(/C=C/c3ccc(C#N)cc3)nc3ccccc3c2=O)c1
